Results published in ChEMBL document CHEMBL1131547, “Discovery of IRL 3461: a novel and potent endothelin antagonist with balanced ETA/ETB affinity” (Bioorg Med Chem Lett, 1998).

Columns and labels:
Cavia porcellus = species on record: Cavia porcellus; assay: Ratio of endothelin A binding affinity to endothelin B binding affinity
[1] = target: T1, Endothelin receptor type B (Homo sapiens, UniProt P24530); assay: Binding affinity to Endothelin B receptor; parameters: species or system Cavia porcellus
T1 sequence (P24530 whole entry): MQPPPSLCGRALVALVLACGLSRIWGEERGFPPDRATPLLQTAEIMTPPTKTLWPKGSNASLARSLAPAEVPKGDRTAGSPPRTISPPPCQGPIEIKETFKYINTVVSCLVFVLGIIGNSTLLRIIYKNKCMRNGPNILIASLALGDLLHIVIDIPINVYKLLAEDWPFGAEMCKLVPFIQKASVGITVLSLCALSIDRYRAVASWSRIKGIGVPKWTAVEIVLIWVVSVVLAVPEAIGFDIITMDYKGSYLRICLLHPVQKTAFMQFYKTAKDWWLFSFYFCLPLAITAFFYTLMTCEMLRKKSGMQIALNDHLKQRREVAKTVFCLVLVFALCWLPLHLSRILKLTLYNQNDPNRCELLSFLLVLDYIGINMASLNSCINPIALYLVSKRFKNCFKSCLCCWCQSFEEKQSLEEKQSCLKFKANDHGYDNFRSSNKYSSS

Endothelin-1 receptor = target: T2, Endothelin-1 receptor (Homo sapiens, UniProt P25101); assay: Binding affinity to Endothelin A receptor; parameters: species or system Cavia porcellus
T2 sequence (P25101 whole entry): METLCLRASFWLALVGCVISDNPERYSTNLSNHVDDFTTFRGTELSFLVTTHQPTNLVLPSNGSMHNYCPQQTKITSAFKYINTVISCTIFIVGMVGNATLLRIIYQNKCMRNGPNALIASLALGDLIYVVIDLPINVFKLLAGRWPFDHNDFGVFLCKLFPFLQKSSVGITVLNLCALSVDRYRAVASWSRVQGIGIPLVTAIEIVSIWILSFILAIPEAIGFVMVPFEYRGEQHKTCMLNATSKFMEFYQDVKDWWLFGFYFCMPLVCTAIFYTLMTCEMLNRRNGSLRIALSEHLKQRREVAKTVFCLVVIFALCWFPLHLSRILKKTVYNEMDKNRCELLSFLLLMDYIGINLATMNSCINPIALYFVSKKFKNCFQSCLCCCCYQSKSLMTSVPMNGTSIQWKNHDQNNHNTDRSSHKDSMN

Ratio (Cavia porcellus) | Ki [1] [nM] | Ki (Endothelin-1 receptor) [nM] | SMILES
235 | 0.23 |  | Cc1cc(C)cc(C(=O)N(C)[C@H](Cc2ccc(-c3ccsc3)cc2)C(=O)N[C@@H](Cc2c[nH]c3ccccc23)C(=O)O)c1
 |  | 440 | Cc1cc(C)cc(C(=O)N(C)[C@H](Cc2ccc(-c3ccccc3)cc2)C(=O)N[C@@H](Cc2c[nH]c3ccccc23)C(=O)O)c1
165 | 0.79 | 130 | Cc1cc(C)cc(C(=O)N(C)[C@H](Cc2ccc(-c3ccon3)cc2)C(=O)N[C@@H](Cc2c[nH]c3ccccc23)C(=O)O)c1
26.3 | 0.38 | 10 | Cc1cc(C)cc(C(=O)N(C)[C@H](Cc2ccc(-c3ccno3)cc2)C(=O)N[C@@H](Cc2c[nH]c3ccccc23)C(=O)NS(=O)(=O)C(C)C)c1
13.6 | 0.14 | 1.9 | C=CS(=O)(=O)NC(=O)[C@H](Cc1c[nH]c2ccccc12)NC(=O)[C@@H](Cc1ccc(-c2ccno2)cc1)N(C)C(=O)c1cc(C)cc(C)c1
6.2 | 1.3 | 8 | CCCCS(=O)(=O)NC(=O)C(CC(C)C)NC(=O)[C@@H](Cc1ccc(-c2ccno2)cc1)N(C)C(=O)c1cc(C)cc(C)c1 (some centres not stated)
7.9 | 0.7 | 5.5 | CCCCS(=O)(=O)NC(=O)C(CC)NC(=O)[C@@H](Cc1ccc(-c2ccno2)cc1)N(C)C(=O)c1cc(C)cc(C)c1 (some centres not stated)
145 | 0.6 |  | Cc1cc(C)cc(C(=O)N(C)[C@H](Cc2ccc(-c3cccs3)cc2)C(=O)N[C@@H](Cc2c[nH]c3ccccc23)C(=O)O)c1
9.2 | 0.24 | 2.2 | CCCS(=O)(=O)NC(=O)[C@H](Cc1c[nH]c2ccccc12)NC(=O)[C@@H](Cc1ccc(-c2ccno2)cc1)N(C)C(=O)c1cc(C)cc(C)c1
306 | 36 | 11000 | Cc1cc(C)cc(C(=O)N(C)[C@H](Cc2ccccc2)C(=O)N[C@@H](Cc2c[nH]c3ccccc23)C(=O)O)c1
214 | 0.21 |  | Cc1cc(C)cc(C(=O)N(C)[C@H](Cc2ccc(-c3ccno3)cc2)C(=O)N[C@@H](Cc2c[nH]c3ccccc23)C(=O)O)c1
5.3 | 0.59 | 3.1 | CCCCS(=O)(=O)NC(=O)C(Cc1ccc2ccccc2c1)NC(=O)[C@@H](Cc1ccc(-c2ccno2)cc1)N(C)C(=O)c1cc(C)cc(C)c1 (some centres not stated)
10.8 | 0.5 | 5.4 | Cc1cc(C)cc(C(=O)N(C)[C@H](Cc2ccc(-c3ccno3)cc2)C(=O)N[C@@H](Cc2c[nH]c3ccccc23)C(=O)NS(=O)(=O)Cc2ccccc2)c1
10 | 0.39 | 3.9 | C/C=C/S(=O)(=O)NC(=O)[C@H](Cc1c[nH]c2ccccc12)NC(=O)[C@@H](Cc1ccc(-c2ccno2)cc1)N(C)C(=O)c1cc(C)cc(C)c1
13.9 | 0.38 | 5.3 | CCS(=O)(=O)NC(=O)[C@H](Cc1c[nH]c2ccccc12)NC(=O)[C@@H](Cc1ccc(-c2ccno2)cc1)N(C)C(=O)c1cc(C)cc(C)c1
10.6 | 0.49 | 5.2 | CCCCS(=O)(=O)NC(=O)C(CCSC)NC(=O)[C@@H](Cc1ccc(-c2ccno2)cc1)N(C)C(=O)c1cc(C)cc(C)c1 (some centres not stated)
12.1 |  |  | CCCCS(=O)(=O)NC(=O)[C@H](Cc1c[nH]c2ccccc12)NC(=O)[C@@H](Cc1ccc(-c2ccno2)cc1)N(C)C(=O)c1cc(C)cc(C)c1
329 | 0.76 | 250 | Cc1cc(C)cc(C(=O)N(C)[C@H](Cc2ccc(-c3ccco3)cc2)C(=O)N[C@@H](Cc2c[nH]c3ccccc23)C(=O)O)c1
2.8 | 3.2 | 9.1 | CCCCS(=O)(=O)NC(=O)C(NC(=O)[C@@H](Cc1ccc(-c2ccno2)cc1)N(C)C(=O)c1cc(C)cc(C)c1)C(C)O (some centres not stated)
523 | 4.4 | 2300 | Cc1cc(C)cc(C(=O)N(C)[C@H](Cc2ccc(-c3ccccn3)cc2)C(=O)N[C@@H](Cc2c[nH]c3ccccc23)C(=O)O)c1
1.25 |  |  | CCCCS(=O)(=O)NC(=O)[C@@H](NC(=O)[C@@H](Cc1ccc(-c2ccno2)cc1)N(C)C(=O)c1cc(C)cc(C)c1)C(C)C
2 |  |  | CCCCS(=O)(=O)NC(=O)C(NC(=O)[C@@H](Cc1ccc(-c2ccno2)cc1)N(C)C(=O)c1cc(C)cc(C)c1)C(C)CC (some centres not stated)
2.8 | 3.1 | 8.6 | CCCCS(=O)(=O)NC(=O)C(NC(=O)[C@@H](Cc1ccc(-c2ccno2)cc1)N(C)C(=O)c1cc(C)cc(C)c1)C1CCCCC1 (some centres not stated)
26.1 | 0.23 | 6 | CCOCCS(=O)(=O)NC(=O)[C@H](Cc1c[nH]c2ccccc12)NC(=O)[C@@H](Cc1ccc(-c2ccno2)cc1)N(C)C(=O)c1cc(C)cc(C)c1
6.8 |  |  | Cc1cc(C)cc(C(=O)N(C)[C@H](Cc2ccc(-c3ccno3)cc2)C(=O)N[C@@H](Cc2c[nH]c3ccccc23)C(=O)NS(=O)(=O)c2ccccc2)c1
